Data reported in a melting point compilation (Tetko et al.; mined from patent text by program, amines drawn as free bases though some values may be those of a salt).

Row | SMILES | melting point [°C]
1 | CC(=O)Nc1c(C(=O)c2ccc(OC(F)(F)F)cc2)[nH]c2cc(Cl)ccc12 | 213 to 214
2 | COc1ccc(OC)c2c1COC(C(=O)O)C2 (stereo not given) | 164 to 166
3 | COc1ccc(-c2cc3cc(F)c(F)cc3[nH]2)cc1NS(=O)(=O)c1cccs1 | 211 to 213
4 | O=C(NCCO)/C(=C/c1ccc(OC(F)(F)F)cc1)NC(=O)c1ccc(OCCC2CC2)cc1 | 142 to 144
5 | OC1(c2ccncc2)c2ccccc2CCc2ccccc21 | 174 to 177
6 | CC(=O)NCC(=O)N(C)c1ccc(Cl)c(COc2cccn3c(Br)c(C)nc23)c1Cl | 187 to 189
7 | C[C@@H]1Cc2cc3c(cc2C(c2ccc(N)cc2)=NN1c1ccccn1)OCO3 | 128 to 130
8 | Cc1cccc(C(=O)Nc2c(NC(=O)CCl)ccc3c2C(=O)c2ccccc2C3=O)c1 | 202 to 203
9 | O=C(NCO)c1cccc(Oc2ccccc2)c1 | 112 to 113
10 | COc1cc(OC)c(F)c(N=Cc2cnc(SC)nc2NC2CC2)c1F | 172 to 174
11 | O=C(OCc1ccccc1)N1CCN(C(=O)C(Cc2ccc(O)cc2)NS(=O)(=O)c2cccc3cnccc23)CC1 (stereo not given) | 137 to 141
12 | CC1C(C)(C)C2=C(c3ncncc3CC2)C1(C)C (stereo not given) | 80
13 | CC(C)C(=O)c1c(C(C)C)nn2ccccc12 | 53 to 55
14 | COc1ccc(C(=O)c2cccc(Cc3ccc(=O)[nH]n3)c2Cl)cc1 | 192 to 193
15 | CC(=O)c1ccc(C(=O)O)o1 | 189 to 195
16 | O=c1[nH]cnc2cscc12 | 275 to 278
17 | CCCCOc1cc(/C=C/S(=O)(=O)NC(=O)OC(C)(C)C)n(Cc2ccc(Cl)cc2Cl)n1 | 152 to 153
18 | COc1cc(OC2CCN(c3c(O)c(=O)c3=O)CC2)ccc1CC(=O)N1CCN(c2ccccc2C)CC1C(N)=O (stereo not given) | 144 to 148
19 | O=C(c1ccccc1F)c1ccc(O)c(Cl)c1Cl | 128 to 131
20 | CCCCCCCCCCCCCCCCCCSCCCCCC(N)=O | 105
21 | Cc1nc2c(OCc3c(Cl)ccc(N(C)C(=O)CNC(N)=O)c3Cl)cccn2c1Br | 147 to 149
22 | CCN(CC)S(=O)(=O)c1ccc(-c2cnc3[nH]c(CCc4cc(OC)ccn4)nc3c2)cc1 | 127 to 129
23 | CC(C)[C@]1(CCc2ccccc2)CC(O)=C(Sc2cc3sc(N)nc3cc2C(C)(C)C)C(=O)O1 | 186 to 188
24 | CCCC1=Nc2ccccc2CC(c2ccsc2)N1C (stereo not given) | 44.5 to 46.5
25 | Cc1cc(C2=NN(C)C(=O)C2)c(Cl)cc1Cl | 196 to 198

Row | SMILES | melting point [°C]
26 | CCCN(CCC)C(=O)COc1nc(-c2ccccc2)nc(C)c1Br | 107 to 108
27 | CC(C)Cc1nc2ccc(Cl)cc2c(-c2ccccc2)c1CN | 114 to 116
28 | COc1nc(C)nc(OC)c1[N+](=O)[O-] | 114 to 115
29 | CC(c1oc2ccc(Br)cc2c(=O)c1-c1ccccc1F)n1cnc2c(N)ncnc21 (stereo not given) | 256 to 258
30 | O=C1NC(=O)C(Sc2ccc(Cl)cc2)S1 (stereo not given) | 109 to 110
31 | Cc1nc2c(N)nc3cc(OCCC4CCN(C(=O)NC5CCCCC5)CC4)ccc3c2n1CC(C)C | 214 to 216
32 | O=C(CCCCCNC(=O)c1ccco1)NO | 114 to 115
33 | CCCNC(=O)C1(CCCN2CCC(N3Cc4ccccc4C3=O)CC2)c2ccccc2-c2ccccc21 | 136 to 138
34 | CCOc1cccc(C2NC(C(=O)O)CS2)c1OCCO[N+](=O)[O-] (stereo not given) | 124 to 125
35 | COc1ccc2[nH]c3c(C)c4ccnc(NC5CC(C)(C)NC(C)(C)C5)c4cc3c2c1 | 223 to 225
36 | Nc1ccc(C(=O)N2CCOCC2)c(N)c1 | 114 to 115
37 | N#Cc1cnc2n(c1=O)CCCCC2 | 125
38 | COc1cc(OC)nc(NC(=O)NS(=O)(=O)N=CN(C)CSC)n1 | 167 to 168
39 | Cn1nc(O)c2ccccc2c1=O | 243 to 244
40 | O=C(Oc1ccc(F)cc1)N1CCN2C(=O)OC(c3ccccc3)(c3ccccc3)C2C1 (stereo not given) | 188 to 189
41 | C[C@@H]1COC2(CCCC2)N1C(=O)c1ccccc1 | 65.5 to 67.5
42 | CC(=O)Nc1ccccc1Oc1cc2c(=O)ccoc2cc1NS(C)(=O)=O | 130 to 132
43 | Nc1ncnc2c1c(-c1ccc(Oc3ccc(F)cc3)cc1)cn2C1CCOC1 (stereo not given) | 198 to 199
44 | CNc1ncnc2c1c(=O)n(C)c(=O)n2C | 178 to 179
45 | O=C1Nc2ccc(F)cc2OC1CCO (stereo not given) | 136 to 138
46 | CC1CCN(c2ccc(Nc3ncc4c(n3)SCC(=O)N4)cc2)CC1 | 278 to 280
47 | CSc1ccc(CC(=O)NC(NC(=NC#N)Nc2cccc3ncccc23)C(C)(C)C)cc1 (stereo not given) | 188 to 189
48 | O=C1c2ccccc2C(=O)c2c1c(Br)n1c2Cc2ccccc2C1 | > 320
49 | O=C(O)CCC(CNCC(CO)(NC(=O)OC1C2CC3CC(C2)CC1C3)C(=O)c1c[nH]c2ccccc12)c1ccccc1 (stereo not given) | 117 to 122
50 | CN1CC(CCCl)Oc2cc3ccccc3nc2C1=S (stereo not given) | 114 to 116

Row | SMILES | melting point [°C]
51 | Cc1c(C)c2c(c(C)c1NC(=O)CC(C)(C)C)C(N1CCCC1)C(C)(C)O2 (stereo not given) | 197 to 198
52 | CCCC(=O)c1cnc2c(OCCCN(C)C)cccc2c1Nc1ccccc1C | 109 to 110
53 | N=C(Nc1ccc(CCCC(=O)Nc2ccccc2)cc1)c1cccs1 | 229 to 231
54 | O=[N+]([O-])c1ccc(-c2nc(-c3cccnc3)no2)cc1 | 163 to 166
55 | COc1ccc2c(c1)CCC1C2CCC2(C)C(=O)C=C(C(C)C)C12 (stereo not given) | 113 to 116
56 | COc1cc([C@@H]2SC[C@@H](c3cc(OC)c(O)c(OC)c3)S2)cc(OC)c1O (relative stereo) | 169 to 170
57 | C[Si](C)(C)C#Cc1ccc2c(C(=O)Nc3cccc(C(F)(F)F)c3)cccc2c1 | 134 to 136
58 | CC(=O)Nc1ccc(OCCCCl)cc1 | 125 to 127
59 | CNC(=O)c1cc(C(=O)OCCO)cc(C(=O)NC)n1 | 214 to 215
60 | O=C(Nc1ccc(-n2nc(C(F)(F)F)cc2C(F)(F)F)cc1)c1cccnc1Cl | 145 to 147
61 | CCCCCCCCCCCCCCCC(=O)OCC1(O)COC(O)(COC(=O)CCCCCCCCCCCCCCC)CO1 (stereo not given) | 95.2
62 | N#Cc1c(Cc2ccccc2)nn(C2CCCC2)c1NC(=O)Cc1ccccc1 | 166 to 168
63 | COC(=O)C1(C(=O)O)CCc2cc(C3CCCCC3)c(Cl)cc21 (stereo not given) | 139 to 142
64 | Clc1cc2c(cc1Cl)Sc1cc(Cl)c(Cl)cc1S2 | 250 to 255
65 | CCc1cnc2c(NC(=O)c3c(Cl)cccc3Cl)cccc2c1/C=C/C(=O)O | 235 to 236
66 | O=C(O)C=C1CCC(n2nc(-c3c(-c4ccccc4)nn4ccccc34)ccc2=O)CC1 (stereo not given) | 188 to 190
67 | CCON(c1ccc([N+](=O)[O-])cc1Cl)S(=O)(=O)c1ccc(C)cc1 | 134 to 135
68 | O=C(CCC(=O)N1CCC[C@H]1C(=O)O)c1ccc(Br)cc1 | 138 to 139
69 | O=C(O)COc1ccc(C(=O)c2ccc(F)cc2)c2ccccc12 | 105 to 108
70 | COC(=O)C(=C/c1ccccc1)/C(=C\c1cc(OC)c(OC)c(OC)c1)C(N)=O | 121 to 122
71 | O=c1cc(C(F)(F)F)[nH]c(=O)n1-c1cc(O)c(Cl)cc1F | 68 to 72
72 | COC(=O)Nc1ccc(C(=O)OC)cc1 | 177 to 178
73 | CCNC(=O)NC(=S)N1N=C(c2ccc([N+](=O)[O-])cc2)c2cc3c(cc2CC1C)OCO3 (stereo not given) | 176 to 177
74 | O=Cc1ccc(OCc2ccccc2)cn1 | 68 to 70
75 | OC1CSC(Oc2cccc(-c3cncc(F)c3)c2)C(O)C1O (stereo not given) | 211 to 212

Row | SMILES | melting point [°C]
76 | CCOC(=O)c1c(N2CCN(c3ccccc3)CC2)n[nH]c1C | 137 to 138
77 | NC(=O)COc1cccc(CCNS(=O)(=O)c2ccc(Br)cc2)c1 | 115 to 116
78 | Cc1cnn(C(C)C(=O)N(C)C)c1-c1ccccc1 (stereo not given) | 88 to 90
79 | Cc1ccc(N=C2NCCN2)c(Cl)c1Cl | 158 to 162
80 | CCCN(c1ccncc1)N1C(=O)Cc2ccccc21 | 140 to 143
81 | O=[N+]([O-])c1ccc(CN2CC=C(/C=C/c3ccccc3)CC2)cc1 | 142 to 144
82 | CS(=O)(=O)Nc1ccc(SCCCCl)cc1 | 61 to 63
83 | CC1(C)NC(=O)C(C)(C)N1O | 240 to 245
84 | Cc1nc(N2CCN(CC3CC3)C2=O)sc1C(=O)NCc1ccncn1 | 188 to 191
85 | C=C(Cc1c(Cl)cccc1Cl)C(=O)O | 132
86 | Cc1cc(NC(=O)C(C)(O)COc2ccc(CC#N)cc2)ccc1[N+](=O)[O-] (stereo not given) | 143 to 145
87 | C[C@@H](C(N)=O)c1ccc(NS(=O)(=O)c2ccccc2)cc1 | 152 to 153
88 | CCCCCCCN(Cc1ccc(C(C)(C)C)cc1)C(Nc1ccc(-c2ccccc2)cc1)=C1C(=O)COC1=O | 190 to 192
89 | COC(=O)CN(c1ccc(Cl)cc1C(=O)c1ccccc1F)S(=O)(=O)c1ccc(N)cc1 | 168 to 170
90 | CS(=O)(=O)c1ccc(-c2cnn(-c3ccc(F)c(F)c3)c(=O)c2-c2cccc(F)c2)cc1 | 182 to 185
91 | COc1cc(C(=O)O)ccc1OCCCCCOc1ccc(C#N)cc1 | 159 to 161
92 | O=S1(=O)NCN(C2CCCCCCC2)c2cc(Cl)c(Cl)cc21 | 154 to 155
93 | CN1C(=O)N(c2cccc(Cl)c2)C(=O)C1S(=O)(=O)c1ccc(F)cc1 (stereo not given) | 170 to 173
94 | OC(c1ccncc1)c1c[nH]c(-c2ccc(F)cc2)c1-c1ccncc1 (single isomer, unassigned; (+)) | 202 to 205
95 | O=C(O)C(=O)CC(=O)c1ccnn1Cc1ccc(F)cc1 | 157 to 159
96 | O=C(NCC(=O)N1c2ccccc2N(Cc2ccccc2)C(=O)[C@H]2CCC[C@H]21)c1cccnc1 (relative stereo) | 189 to 191
97 | CCCOc1ccc(/C=C/C(=O)N2CCOCC2)cc1-c1nc2c(c(C)nn2CCC)c(=O)[nH]1 | 156 to 157
98 | CCOC(=O)C(Cc1ccc(OCCN2CCC(C)(C)c3cc(C(=O)c4ccccc4)ccc32)cc1)OCC(F)(F)F (stereo not given) | 56 to 58
99 | Cc1ccc(-c2ccc3c(c2)C=C(C(=O)O)C(C)O3)cc1 (stereo not given) | 190 to 192
100 | COc1ccc(C(O)CN2CCN(C(c3ccccc3)c3ccccc3)CC2)c(OC)c1 (stereo not given) | 116
